Measurements as given in ChEMBL document CHEMBL4371038, “Synthesis and biological evaluation of novel 1-substituted 3-(3-phenoxyprop-1-yn-1-yl)-1H-pyrazolo[3,4-d]pyrimidin-4-amines as potent Bruton's tyrosine kinase (BTK) inhibitors” (Bioorg Med Chem Lett, 2019).

Key:
[1] = target: T1, Tyrosine-protein kinase BTK (Homo sapiens, UniProt Q06187); experiment: Inhibition of recombinant full-length human N-terminal GST-fused BTK (2 to 659 residues) expressed in baculovirus expression system using biotin-labelled peptide as substrate measured after 50 mins by TR-FRET assay
[2] = target: T1, Tyrosine-protein kinase BTK; experiment: Inhibition of recombinant full-length human N-terminal GST-fused BTK (2 to 659 residues) expressed in baculovirus expression system at 1 uM using biotin-labelled peptide as substrate measured after 50 mins by TR-FRET assay relative to control
Raji = experiment: Antiproliferative activity against human Raji cells after 48 hrs by CCK8 assay; format: functional, cell-based
Ramos = experiment: Antiproliferative activity against human Ramos cells after 48 hrs by CCK8 assay; format: functional, cell-based
SU-DHL-6 = experiment: Antiproliferative activity against human SU-DHL6 cells after 72 hrs by CellTiter-Glo luminescent cell viability assay; format: functional, cell-based; details: SU-DHL-6, 72 h
[3] = Cytotoxicity against human PBMC assessed as inhibition of cell proliferation at 30 uM after 72 hrs by CellTiter-Glo luminescent cell viability assay relative to control; format: cell-based; details: PBMC (peripheral blood mononuclear cells)
DOHH-2 = experiment: Antiproliferative activity against human DOHH2 cells after 72 hrs by CellTiter-Glo luminescent cell viability assay; format: functional, cell-based; details: DOHH-2, 72 h
[4] = Antiproliferative activity against human WSU-DLCL2 cells after 72 hrs by CellTiter-Glo luminescent cell viability assay; format: functional, cell-based; details: WSUDLCL2, 72 h
[5] = Antiproliferative activity against human Mino cells after 72 hrs by CellTiter-Glo luminescent cell viability assay; format: functional, cell-based
PBMC = experiment: Cytotoxicity against human PBMC after 72 hrs by CellTiter-Glo luminescent cell viability assay; format: cell-based

T1 sequence (Q06187 whole entry, the tested form may be a part): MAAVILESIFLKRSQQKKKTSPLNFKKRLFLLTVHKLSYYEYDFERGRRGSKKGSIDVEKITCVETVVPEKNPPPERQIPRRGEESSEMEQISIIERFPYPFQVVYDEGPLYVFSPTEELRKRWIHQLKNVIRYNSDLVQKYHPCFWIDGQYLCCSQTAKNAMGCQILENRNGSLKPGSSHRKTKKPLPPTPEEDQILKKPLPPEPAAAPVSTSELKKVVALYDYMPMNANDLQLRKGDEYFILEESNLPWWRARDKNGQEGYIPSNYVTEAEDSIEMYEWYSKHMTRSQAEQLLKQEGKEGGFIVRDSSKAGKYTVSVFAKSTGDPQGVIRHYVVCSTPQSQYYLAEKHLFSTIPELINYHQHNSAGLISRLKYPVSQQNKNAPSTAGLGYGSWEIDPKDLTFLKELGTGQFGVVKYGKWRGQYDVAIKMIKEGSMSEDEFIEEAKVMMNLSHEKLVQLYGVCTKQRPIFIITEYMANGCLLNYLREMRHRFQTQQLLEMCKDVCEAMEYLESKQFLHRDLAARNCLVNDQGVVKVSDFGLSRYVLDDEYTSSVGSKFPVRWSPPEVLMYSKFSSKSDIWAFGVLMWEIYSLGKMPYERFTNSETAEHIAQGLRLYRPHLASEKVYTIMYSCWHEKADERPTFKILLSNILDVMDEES

In the case of `C=CC(=O)N[C@H]1CC[C@@H](n2nc(C#CCOc3ccccc3)c3c(N)ncnc32)CC1`, the IC50 [1] is reported as 14.8 nM and the inhibition [2] is reported as 101%.

In the case of `C=CC(=O)N(C)CCn1nc(C#CCOc2ccccc2)c2c(N)ncnc21`, the inhibition [2] is reported as 48.5%.

In the case of `CC(C)/C=C(\C#N)C(=O)N1CCC[C@@H](n2nc(C#CCOc3ccccc3)c3c(N)ncnc32)C1`, the IC50 (Raji) is reported as over 40000 nM, the IC50 (Ramos) is reported as over 40000 nM and the IC50 [1] is reported as 9.7 nM. The inhibition [2] was 99.6%.

`Nc1ncnc2c1c(C#CCOc1ccccc1)nn2[C@@H]1CCCN(C(=O)/C=C/CN2CCOCC2)C1` gave an inhibition [2] of 86.1%.

With `C=CC(=O)NCCn1nc(C#CCOc2ccccc2)c2c(N)ncnc21` the inhibition [2] was 27.1%.

`C=C(F)C(=O)N1CCC[C@@H](n2nc(C#CCOc3ccccc3)c3c(N)ncnc32)C1` showed an inhibition [2] of 73.8%.

With `CC#CC(=O)N1CCC[C@@H](n2nc(C#CCOc3ccccc3)c3c(N)ncnc32)C1` the IC50 [1] was 28.3 nM and the inhibition [2] was 99.7%.

`Nc1ncnc2c1c(C#CCOc1ccccc1)nn2[C@@H]1CCCN(C(=O)/C=C/CBr)C1` gave an IC50 [1] of 13.2 nM and an inhibition [2] of 92.2%.

In the case of `C=CS(=O)(=O)N1CCC[C@@H](n2nc(C#CCOc3ccccc3)c3c(N)ncnc32)C1`, the IC50 (Raji) is reported as over 40000 nM, the IC50 (Ramos) is reported as over 40000 nM and the IC50 [1] is reported as 4.2 nM. The inhibition [2] was 104%.

Work on `C=CC(=O)N1CCC[C@@H](n2nc(-c3ccc(Oc4ccccc4)cc3)c3c(N)ncnc32)C1` [IBRUTINIB] yielded an IC50 (SU-DHL-6) of 874 nM, an inhibition at 72 h, 30 µM [3] of 69% and an IC50 (DOHH-2) of 33.4 nM. It also gave an IC50 [4] of 487 nM and an IC50 [5] of 3150 nM.

`C=CC(=O)N1CCC[C@H]1Cn1nc(C#CCOc2ccccc2)c2c(N)ncnc21` showed an inhibition [2] of 42.9%.

Molecule `C#CC(=O)N1CCC[C@@H](n2nc(C#CCOc3ccccc3)c3c(N)ncnc32)C1` has an IC50 (Raji) of 2370 nM, an IC50 (Ramos) of 9940 nM and an IC50 (SU-DHL-6) of 26.6 nM. It also gave an IC50 (PBMC) of 4120 nM, an IC50 [1] of 11.1 nM and an IC50 (DOHH-2) of 12.8 nM. For the same molecule, the IC50 [4] was 14.1 nM, the IC50 [5] was 67.9 nM and the inhibition [2] was 102%.

Work on `C=CC(=O)N1CCC[C@@H](n2nc(C#CCOc3ccccc3)c3c(N)ncnc32)C1` yielded an IC50 (SU-DHL-6) of 1630 nM, an IC50 (PBMC) of over 30000 nM and an IC50 (DOHH-2) of 18.1 nM. It also gave an IC50 [4] of 395 nM and an IC50 [5] of 3730 nM.

For `N#C/C(=C\C1CC1)C(=O)N1CCC[C@@H](n2nc(C#CCOc3ccccc3)c3c(N)ncnc32)C1`, the IC50 (Raji) was 2090 nM, the IC50 (Ramos) was 9060 nM and the IC50 (SU-DHL-6) was over 10000 nM. It also gave an IC50 (PBMC) of over 30000 nM, an IC50 [1] of 11.1 nM and an IC50 (DOHH-2) of over 10000 nM. It also gave an IC50 [4] of over 10000 nM, an IC50 [5] of 8850 nM and an inhibition [2] of 97.1%.

In the case of `C=CC(=O)N1CC[C@@H](n2nc(C#CCOc3ccccc3)c3c(N)ncnc32)C1`, the IC50 [1] is reported as 18.8 nM and the inhibition [2] is reported as 96.1%.

Work on `Nc1ncnc2c1c(C#CCOc1ccccc1)nn2[C@@H]1CCCN(C(=O)/C=C/Cn2cncn2)C1` yielded an inhibition [2] of 76.3%.

With `C/C=C(\C#N)C(=O)N1CCC[C@@H](n2nc(C#CCOc3ccccc3)c3c(N)ncnc32)C1` the IC50 (Raji) was 17600 nM, the IC50 (Ramos) was 25800 nM and the IC50 [1] was 7.8 nM. For the same molecule, the inhibition [2] was 98.5%.
